Data on 18 compounds can be found in patent US20250129076A1, “FUSED TETRACYCLIC COMPOUNDS, COMPOSITIONS AND DIAGNOSTIC APPLICATIONS THEREOF” (priority 2021, published 2025).

Data set [1] relates to DNA. Briefly: Detection of DNA binding by the compounds (Table 2). Particulars: yes = binding detected, empty cells not reported.
The subject of a further data set is RNA. Briefly: Detection of RNA binding by the compounds (Table 2). Particulars: yes = binding detected, empty cells not reported.
The test system of a further data set is Calf Thymus DNA (CT-DNA). The data set is described as follows: Increase in fluorescence upon binding with Calf Thymus DNA. Conditions: figure legends FIG. 12-22. The method, then:
1 mg/ml stock solutions of all the compounds were prepared in DMSO. Few insoluble compounds were then dissolved in non-polar solvent. 10 ul (1 mg/ml) of each of the compounds were used to do an absorbance scan in the TECAN nano reader and the graphs were plotted. The absorbance peaks for each of the compounds were tabulated and further used as excitation wavelength for fluorescence scans. Initially an absorbance scan was performed to identify the excitation maxima after which the excitation wavelength was used to obtain the emission maxima/fluorescence plots. Once the excitation and emission maxima were known, different concentrations of the compounds were used starting from 10 ng to saturating concentrations to obtain fluorescent spectra. Similarly, a fixed concentration of the compound was used to which an increasing concentration of DNA/RNA was added until saturation to find the nucleic acid binding properties of the dyes and compounds. In addition, a fixed concentration of DNA/RNA was used, to which increasing concentrations of the compounds were added until saturation. The data obtained was plotted and used for calculating binding constants and determining the binding ability of the dyes and compounds. 1 mg/ml stock solutions of all compounds the were prepared in DMSO. Few insoluble compounds were then dissolved in nonpolar solvent. 10 ul (1 mg/ml) of each of the compounds were used to do an absorbance scan in the TECAN nano reader and the graphs were plotted. The absorbance peaks for each of the compounds were tabulated and further used as excitation wavelength for fluorescence scans. Initially an absorbance scan was performed to identify the excitation maxima after which the excitation wavelength was used to obtain the fluorescence plots. Once the excitation and emission maxima were known, different concentrations of the compounds were used starting from 10 ng to saturating concentrations to obtain fluorescent spectra. Similarly, a fixed concentration of the said compound was used to which an increasing concentration of DNA/RNA was added until saturation to find the nucleic acid binding properties of the dyes and compounds. In addition, a fixed concentration of DNA/RNA was used, to which increasing concentrations of the compounds were added until saturation. The data obtained was plotted and used for calculating binding constants and determining the binding ability of the dyes and compounds.

Data set [2] is described as follows: Absorbance and fluorescence scans (excitation and emission maxima). The class given is physicochemical. Set-up: unit not given here. Particulars: compound alone; Table 6. The method, then: 1 mg/ml stock solutions of all the compounds were prepared in DMSO. Few insoluble compounds were then dissolved in non-polar solvent. 10 ul (1 mg/ml) of each of the compounds were used to do an absorbance scan in the TECAN nano reader and the graphs were plotted.
The absorbance peaks for each of the compounds were tabulated and further used as excitation wavelength for fluorescence scans. Initially an absorbance scan was performed to identify the excitation maxima after which the excitation wavelength was used to obtain the emission maxima/fluorescence plots. Once the excitation and emission maxima were known, different concentrations of the compounds were used starting from 10 ng to saturating concentrations to obtain fluorescent spectra. Similarly, a fixed concentration of the compound was used to which an increasing concentration of DNA/RNA was added until saturation to find the nucleic acid binding properties of the dyes and compounds. In addition, a fixed concentration of DNA/RNA was used, to which increasing concentrations of the compounds were added until saturation. The data obtained was plotted and used for calculating binding constants and determining the binding ability of the dyes and compounds. […]
(§1) 1 mg/ml stock solutions of all compounds the were prepared in DMSO. Few insoluble compounds were then dissolved in nonpolar solvent. 10 ul (1 mg/ml) of each of the compounds were used to do an absorbance scan in the TECAN nano reader and the graphs were plotted. The absorbance peaks for each of the compounds were tabulated and further used as excitation wavelength for fluorescence scans. Initially an absorbance scan was performed to identify the excitation maxima after which the excitation wavelength was used to obtain the fluorescence plots. Once the excitation and emission maxima were known, different concentrations of the compounds were used starting from 10 ng to saturating concentrations to obtain fluorescent spectra. Similarly, a fixed concentration of the said compound was used to which an increasing concentration of DNA/RNA was added until saturation to find the nucleic acid binding properties of the dyes and compounds. In addition, a fixed concentration of DNA/RNA was used, to which increasing concentrations of the compounds were added until saturation. The data obtained was plotted and used for calculating binding constants and determining the binding ability of the dyes and compounds.

The test system of data set [3] is DNA. Briefly: Emission maxima with DNA. The class given is binding. Conditions: Table 6. The method, then: The absorbance peaks for each of the compounds were tabulated and further used as excitation wavelength for fluorescence scans. Initially an absorbance scan was performed to identify the excitation maxima after which the excitation wavelength was used to obtain the emission maxima/fluorescence plots. Once the excitation and emission maxima were known, different concentrations of the compounds were used starting from 10 ng to saturating concentrations to obtain fluorescent spectra. Similarly, a fixed concentration of the compound was used to which an increasing concentration of DNA/RNA was added until saturation to find the nucleic acid binding properties of the dyes and compounds. In addition, a fixed concentration of DNA/RNA was used, to which increasing concentrations of the compounds were added until saturation. The data obtained was plotted and used for calculating binding constants and determining the binding ability of the dyes and compounds.
as §1

For a further data set, the system named is RNA of E. coli BL21. The data set is described as follows: Working concentration of compound (25) for RNA detection, agarose gel electrophoresis. It is filed as binding. Conditions: 10-50 ng RNA with 5, 10, 20, 40 ng of compound 25; 1% agarose gel, TBE buffer. The method, then: To check the working concentration of compound (25) using different concentrations of RNA, RNA of E. coli BL21 was isolated and diluted to 10 ng/μl from the stock. Using a TBE buffer 1% agarose gel was casted and gel electrophoresis is performed using 10-50 ng concentration of RNA with 5, 10, 20, 40 ng of compound 25.

The subject of the next data set is double-stranded DNA. Conditions: when bound; cited from earlier work.
Data set [4] can be described thus: Comparison with commonly available DNA staining agents: photostability (Table 3). The class given is physicochemical.
Data set [5] can be described thus: Comparison with commonly available DNA staining agents: toxicity (Table 3). Particulars: Hoescht and DAPI cells wrap: 'Potentially carcinogenic & Mutagenic'.
Another data set relates to Protein. The data set is described as follows: Detection of protein binding by the compounds (Table 2). Conditions: yes = binding detected, empty cells not reported. An excerpt:
Absorbance Spectra and Fluorescence Spectra conditions for compound+DNA/RNA/Protein Methods of experimentation: An Excitation Max: 488 nm, Emission Max: 560 nm, Band width: 488-600 nm on Alexa Fluor 488 channel were used for flow cytometry and microscopic determinations TECAN spectrofluorimeter.

Structures are written as SMILES. Entries after “also recorded” stand apart in the source; their conditions may differ. Some results are limits rather than exact numbers.

Take `Oc1ccc2c(c1)OC[C@]1(O)Cc3cc(O)c(O)cc3[C@H]21` [Compound 033]: the “DNA (binding detected)” value in the data set with DNA [1] is given as “yes”. The “RNA (binding detected)” value with RNA is “yes”. Also, the “increase in fluorescence upon binding with Calf Thymus DNA (CT-DNA)” value (“increase in fluorescence upon binding” below) with Calf Thymus DNA (CT-DNA) is on record as over 1000 fold.
Consider `Cc1ccc(C)cc1` [Compound 026], for which, in the data set on DNA [1], the “DNA (binding detected)” value is “yes”. Further, the “RNA (binding detected)” value in the data set with RNA was “yes”. For the same compound, in data set [2], the Emission maxima is 580 and the “Excitation Maxima” value amounted to 490. The Emission maxim with DNA with DNA [3] worked out at 590 nm.
Turning to `Cc1ccc(S(=O)(=O)N2C[C@]3(O)Cc4cc(O)c(O)cc4[C@@H]3c3cc(-c4ccc(F)cc4)c(O)cc32)cc1` [Compound 039], in the data set on DNA [1], the “DNA (binding detected)” value is on record as “yes”.
With `CN1C/C(=C\c2ccc(O)c(O)c2)C(=O)c2ccc(O)cc21` [Compound 025], in the data set on RNA, the “RNA (binding detected)” value was “yes”. For the same compound, in the data set on Calf Thymus DNA (CT-DNA), the “increase in fluorescence upon binding” value is over 1000 fold. For the same compound, in the data set with RNA of E. coli BL21, the “RNA bands on gel” value is given as “bands are in all the wells”.
For the compound `CCCN(CCCN(C)C)c1cc(/C=C2/Sc3ccccc3N2C)c2ccccc2[n+]1-c1ccccc1` [SYBR Green], in the data set on double-stranded DNA, the “absorbs at a wavelength” value is listed as “around 497 nm” and the emits fluorescence entry is “around 530 nm”.
On to `O=C1/C(=C/c2ccc(O)c(O)c2)COc2cc(O)ccc21` [Compound 015], for which the “DNA (binding detected)” value in the data set with DNA [1] is on record as “yes”. Besides, in the data set with RNA, the “RNA (binding detected)” value is on record as “yes”. In data set [2], the Emission maxima was found to be 570 and the “Excitation Maxima” value was determined as 490. Moreover, in the data set with DNA [3], the Emission maxim with DNA turned out to be 610 nm.
On to `COc1cc(/C=C2\COc3cc(O)ccc3C2=O)ccc1O` [Compound 007], for which, in the data set with DNA [1], the “DNA (binding detected)” value was “yes”. For the same compound, in the data set on RNA, the “RNA (binding detected)” value is recorded as “Yes”. The “increase in fluorescence upon binding” value in the data set with Calf Thymus DNA (CT-DNA) is given as 25 fold.
As for `N=C(N)c1ccc(-c2cc3ccc(C(=N)N)cc3[nH]2)cc1` [DAPI], in data set [4], the Photostability came out at 10 min. The Toxicity result in [5] is given as “carcinogenic; also recorded: & Mutagenic”.
Consider `CCc1cc(O)ccc1C(=O)/C=C/C1=CC(OC)C(O)C=C1` (centres unmarked) [Compound 031], for which, in the data set on RNA, the “RNA (binding detected)” value is “yes”. In addition, in data set [2], the Emission maxima stood at 610 and the “Excitation Maxima” value worked out at 490. Also, in the data set on DNA [3], the Emission maxim with DNA was 610 nm.
Turning to `Cc1ccc2c(c1)OC/C(=C\c1ccc(C)c(C)c1)C2=O` [Compound 016], the “DNA (binding detected)” value in the data set on DNA [1] is recorded as “yes”. Moreover, the “increase in fluorescence upon binding” value in the data set with Calf Thymus DNA (CT-DNA) was 5 fold. In [2], the Emission maxima came to 610 and the “Excitation Maxima” value was determined as 490. Also, the Emission maxim with DNA with DNA [3] came out at 610 nm.
As to `O=C1C=C2C(=C[C@@]3(O)COc4cc(O)ccc4[C@@H]23)C=C1O` [Compound 019], the “DNA (binding detected)” value with DNA [1] was “yes”. Also, the “increase in fluorescence upon binding” value in the data set with Calf Thymus DNA (CT-DNA) was over 1000 fold. Also, in data set [2], the Emission maxima is 570 and the “Excitation Maxima” value was 490. For the same compound, in the data set on DNA [3], the Emission maxim with DNA worked out at 570 nm.
Regarding `COc1ccc2c(c1)SCC1=C2c2cc(OC)c(OC)cc2C1` [Compound 021], the “RNA (binding detected)” value in the data set with RNA is on record as “yes”.
Regarding `Oc1ccc2c(c1)OC[C@](O)(Cc1ccc(O)c(O)c1)[C@H]2O` [Compound 017], the “DNA (binding detected)” value with DNA [1] was “yes”. Besides, in the data set on RNA, the “RNA (binding detected)” value was “yes”. Further, in the data set with Calf Thymus DNA (CT-DNA), the “increase in fluorescence upon binding” value is over 1000 fold.
In the case of `COc1cc2c(cc1OC)[C@@H]1c3cc(-c4ccccc4)c(OC)cc3N(S(=O)(=O)c3ccc(C)cc3)C[C@]1(O)C2` [Compound 038], the “RNA (binding detected)” value with RNA is “yes”. Further, in the data set with Calf Thymus DNA (CT-DNA), the “increase in fluorescence upon binding” value was 2 fold.
For the compound `Oc1cc2c(cc1O)[C@@H]1c3cc(-c4ccc(F)cc4)c(O)cc3OC[C@]1(O)C2` [Compound 037], the “DNA (binding detected)” value in the data set with DNA [1] is “yes”. Further, in the data set with RNA, the “RNA (binding detected)” value is reported as “yes”. The “Protein (binding detected)” value with Protein was “yes”. Further, the “increase in fluorescence upon binding” value with Calf Thymus DNA (CT-DNA) is reported as over 1000 fold.
Take `Cc1cc2c(cc1O)OC[C@]1(O)Cc3cc(O)c(O)cc3[C@H]21` [Compound 032]: in [2], the Emission maxima is recorded as 570 and the “Excitation Maxima” value came to 490. The Emission maxim with DNA in the data set on DNA [3] is 570 nm.
Turning to `COc1ccc2c(c1)OC/C(=C\c1ccc(OC)c(OC)c1)C2=O` [Compound 009], the “RNA (binding detected)” value in the data set with RNA is given as “yes”. In the data set on Calf Thymus DNA (CT-DNA), the “increase in fluorescence upon binding” value came to 15 fold.
Turning to `Oc1cc2c(cc1O)[C@@H]1c3cc(-c4ccccc4)c(O)cc3OC[C@]1(O)C2` [Compound 035], the “RNA (binding detected)” value with RNA is listed as “yes”. Besides, the “Protein (binding detected)” value in the data set with Protein is recorded as “yes”. Also, in the data set with Calf Thymus DNA (CT-DNA), the “increase in fluorescence upon binding” value is over 1000 fold. Besides, in data set [2], the Emission maxima turned out to be 580 and the “Excitation Maxima” value is 490. Besides, in the data set with DNA [3], the Emission maxim with DNA was 580 nm.
